Data on twelve molecules can be found in patent US8906925B2, “Pyrido[4,3-B]indoles containing rigid moieties” (Medivation Technologies, Inc., priority 2008, dated 2014).

Experiment [1] addresses human dopamine D2L receptor (Homo sapiens, UniProt P14416). In words: Dopamine D2L radioligand binding ([3H]Spiperone). Conditions: compound at 1 μM; for Inhibition of ligand binding, Dopamine D2L: 1 µM. The source says: Non-specific binding was estimated in the presence of […] Haloperidol. Receptor proteins were filtered and washed, the filters were then counted to determine [^3H]Spiperone specifically bound. […] Biochemical assay results are presented as the percent inhibition of specific binding in Table 9.

The target in experiment [2] is T1, human recombinant adrenergic α2A receptor (Homo sapiens, UniProt P08913).
T1 construct: expressed in transfected cells; host or cells: insect Sf9 cells
T1 sequence (P08913 1-465): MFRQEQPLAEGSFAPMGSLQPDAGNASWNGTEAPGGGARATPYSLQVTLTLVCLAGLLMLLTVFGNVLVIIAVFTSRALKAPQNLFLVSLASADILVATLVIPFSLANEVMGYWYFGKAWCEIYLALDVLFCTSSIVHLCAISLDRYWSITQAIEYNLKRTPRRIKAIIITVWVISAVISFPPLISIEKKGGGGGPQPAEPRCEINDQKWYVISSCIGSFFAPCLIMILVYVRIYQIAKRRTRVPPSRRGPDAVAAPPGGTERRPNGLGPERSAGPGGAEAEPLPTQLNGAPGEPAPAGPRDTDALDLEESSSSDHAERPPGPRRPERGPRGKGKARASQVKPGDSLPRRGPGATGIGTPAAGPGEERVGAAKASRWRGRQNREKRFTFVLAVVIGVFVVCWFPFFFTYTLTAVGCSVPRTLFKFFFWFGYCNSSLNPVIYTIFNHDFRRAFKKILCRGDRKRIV
In words: Adrenergic α2A radioligand binding ([3H]MK-912). The settings on record: compound at 1 μM. The method, then:
To evaluate in radioligand binding assays the activity of compounds of the invention, human recombinant adrenergic α2A receptor expressed in insect Sf9 cells (Uhlen S et al. J Pharmacol Exp Ther. 271:1558, 1994) in a modified Tris-HCl buffer (50 mM Tris-HCl, pH 7.4, 12.5 mM MgCl2, 2 mM EDTA) was used. Compounds of invention were incubated with 1 nM [^3H]MK-912 for 60 min. at 25° C. MK912 is (2S-trans)-1,3,4,5′,6,6′,7,12b-octahydro-1′,3′-dimethyl-spiro[2H-benzofuro[2,3-a]quinolizine-2,4′(1′H)-pyrimidin]-2′(3′H)-one hydrochloride Non-specific binding was estimated in the presence of 10 μM WB-4101 (2-(2,6-Dimethoxyphenoxyethyl)aminomethyl-1,4-benzodioxane hydrochloride). Receptor proteins were filtered and washed, the filters were then counted to determine [^3H]MK-912 specifically bound. Compounds were screened at 1 μM or lower, using 1% DMSO as vehicle. Biochemical assay results are presented as the percent inhibition of specific binding in Table 9.

Experiment [3] has as its target histamine receptor H1 (Homo sapiens, UniProt P35367). Description: Histamine H1 radioligand binding ([3H]Pyrilamine). The settings on record: for inhibition at 1 µM: read-out: Histamine Binding (1 μM) H1, percent inhibition of specific binding, 1 μM. The essentials: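 Values are percent inhibition of specific [3H]pyrilamine (1.2 nM) binding with compounds at ≤1 μM (1% DMSO vehicle); 180 min incubation at 25 °C, pH 7.4 Tris buffer, on CHO-expressed human H1 receptor; 1 μM pyrilamine defined nonspecific binding, bound ligand counted after filtration.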

Experiment [4] addresses T2, human recombinant adrenergic α2B receptor (Homo sapiens, UniProt P18089).
T2 construct: expressed in transfected cells; host or cells: Chinese hamster ovary (CHO-K1) cells
T2 sequence (P18089 1-450): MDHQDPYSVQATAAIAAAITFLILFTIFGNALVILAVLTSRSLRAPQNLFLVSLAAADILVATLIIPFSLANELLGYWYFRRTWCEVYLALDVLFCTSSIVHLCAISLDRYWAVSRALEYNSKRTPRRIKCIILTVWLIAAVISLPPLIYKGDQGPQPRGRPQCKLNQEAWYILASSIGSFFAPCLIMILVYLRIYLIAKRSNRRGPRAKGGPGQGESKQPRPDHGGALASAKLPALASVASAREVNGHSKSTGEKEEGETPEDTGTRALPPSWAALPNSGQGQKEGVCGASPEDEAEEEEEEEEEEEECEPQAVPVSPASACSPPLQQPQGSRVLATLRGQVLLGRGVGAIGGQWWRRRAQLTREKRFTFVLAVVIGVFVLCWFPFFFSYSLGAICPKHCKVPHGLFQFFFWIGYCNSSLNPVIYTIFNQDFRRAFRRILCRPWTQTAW
Description: Adrenergic α2B radioligand binding ([3H]Rauwolscine). The settings on record: compound at 1 μM. The method, then: To evaluate in radioligand binding assays the activity of compounds of the invention, human recombinant adrenergic α2B receptor expressed in Chinese hamster ovary (CHO-K1) cells (Uhlen S et al. Eur J Pharmacol. 343(1):93, 1998) in a modified Tris-HCl buffer (50 mM Tris-HCl, pH 7.4, 12.5 mM MgCl2, 1 mM EDTA, 0.2% BSA) was used. Compounds of the invention were incubated with 2.5 nM [^3H]Rauwolscine for 60 min. at 25° C. Non-specific binding was estimated in the presence of 10 μM Prozosin. Receptor proteins were filtered and washed, the filters were then counted to determine [^3H]Rauwolscine specifically bound. Compounds were screened at 1 μM or lower, using 1% DMSO as vehicle. Biochemical assay results are presented as the percent inhibition of specific binding in Table 9.

The target of experiment [5] is T3, human recombinant histamine H2 receptor (Homo sapiens, UniProt P25021).
T3 construct: expressed in transfected cells; host or cells: Chinese hamster ovary (CHO) K1 cells
T3 sequence (P25021 whole entry): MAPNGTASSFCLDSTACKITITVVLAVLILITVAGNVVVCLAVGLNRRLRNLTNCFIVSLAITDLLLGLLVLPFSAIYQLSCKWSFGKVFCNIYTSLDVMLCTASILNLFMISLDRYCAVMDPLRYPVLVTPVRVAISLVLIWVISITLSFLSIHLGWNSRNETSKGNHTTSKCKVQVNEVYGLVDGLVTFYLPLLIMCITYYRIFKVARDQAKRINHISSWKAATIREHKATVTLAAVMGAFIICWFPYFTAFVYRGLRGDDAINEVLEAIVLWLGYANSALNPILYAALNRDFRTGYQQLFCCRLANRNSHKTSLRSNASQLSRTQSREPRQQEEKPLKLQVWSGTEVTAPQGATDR
Description: Histamine H2 radioligand binding ([125I]Aminopotentidine). The settings on record: read-out: Histamine Binding (1 μM) H2, percent inhibition of specific binding, 1 μM. In short, it runs like this:
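Receptor source: human recombinant H2 in CHO-K1 cells, assayed in 50 mM phosphate pH 7.4. Competition against 0.1 nM [125I]aminopotentidine, 120 min, 25 °C; 3 μM tiotidine sets nonspecific binding, filter-bound counts give specific binding.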

Setting [6] is: percent inhibition of specific binding.
Where [7] appears, read: percent inhibition of specific binding, read-out: Inhibition of ligand binding, Dopamine D2L.
Where [8] appears, read: percent inhibition of specific binding, read-out: Inhibition of ligand binding, Adrenergic α2A.
Setting [9] is: percent inhibition of specific binding, read-out: Inhibition of ligand binding, Adrenergic α2B.
The mark [10] stands for this setting: […] [3H]Spiperone, read-out: Inhibition of ligand binding, Dopamine D2L (percent inhibition of specific binding).
The mark [11] stands for this setting: read-out: Inhibition of ligand binding, Adrenergic α2A (percent inhibition of specific binding).
Where [12] appears, read: […] [3H]Rauwolscine, read-out: Inhibition of ligand binding, Adrenergic α2B (percent inhibition of specific binding).

Structures are written as SMILES. “And” between values parts separate entries of the source, which are not always exact repeats. Equal entries are not always repeated. Where two headings read alike, the source gives them in different places.

Sequence of histamine receptor H1 (P35367 whole entry): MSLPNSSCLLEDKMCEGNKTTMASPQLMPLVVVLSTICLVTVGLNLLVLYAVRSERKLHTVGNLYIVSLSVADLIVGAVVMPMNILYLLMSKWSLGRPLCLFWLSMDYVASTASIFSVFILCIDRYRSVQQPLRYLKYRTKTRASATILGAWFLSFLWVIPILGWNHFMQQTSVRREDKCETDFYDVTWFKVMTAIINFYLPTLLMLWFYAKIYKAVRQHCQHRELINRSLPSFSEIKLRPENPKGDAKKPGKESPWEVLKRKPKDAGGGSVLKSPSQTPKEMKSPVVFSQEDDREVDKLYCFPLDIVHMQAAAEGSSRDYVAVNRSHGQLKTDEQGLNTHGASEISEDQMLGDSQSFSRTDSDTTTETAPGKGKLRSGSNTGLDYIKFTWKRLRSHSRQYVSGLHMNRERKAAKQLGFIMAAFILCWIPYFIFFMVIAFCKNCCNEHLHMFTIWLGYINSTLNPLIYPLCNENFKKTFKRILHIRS
Sequence of human dopamine D2L receptor (P14416 whole entry): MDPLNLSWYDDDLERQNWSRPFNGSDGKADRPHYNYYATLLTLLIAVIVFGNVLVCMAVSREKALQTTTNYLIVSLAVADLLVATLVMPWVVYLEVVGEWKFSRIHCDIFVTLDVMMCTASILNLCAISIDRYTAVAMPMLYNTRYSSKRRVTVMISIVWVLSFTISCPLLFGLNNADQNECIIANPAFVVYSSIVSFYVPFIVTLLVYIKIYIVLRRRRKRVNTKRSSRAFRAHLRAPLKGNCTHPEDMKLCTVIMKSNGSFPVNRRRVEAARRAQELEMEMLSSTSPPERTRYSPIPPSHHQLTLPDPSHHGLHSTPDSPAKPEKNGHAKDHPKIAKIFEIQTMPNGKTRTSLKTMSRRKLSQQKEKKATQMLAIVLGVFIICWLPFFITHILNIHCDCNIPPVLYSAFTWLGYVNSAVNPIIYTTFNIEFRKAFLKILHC

The inhibition is the drop in the measured response relative to a control, in per cent. As to `C/C(=C\n1c2c(c3cc(Cl)ccc31)CN(C)CC2)c1ccncc1` [Compound 90, (E)-8-chloro-2,3,4,5-tetrahydro-2-methyl-5-(2-(pyridin-4-yl)prop-1-enyl)-1H-pyrido[4,3-b]indole], the “Inhibition of ligand binding, Dopamine D2L” value in experiment [1] (setting [6]) is 98%. Besides, the inhibition at 1 µM in experiment [1] (setting [7]) stood at 93%; in experiment [2] (setting [8]), 95%; in experiment [3], 48%; in experiment [4] (setting [9]) it was 104%; in experiment [5], 60%. The “Histamine Binding (1 μM) H1, percent inhibition of specific binding” value in experiment [3] stood at 59%.
Take `CC(=Cn1c2c(c3cc(Cl)ccc31)CN(C)CC2)c1ccc(Cl)cc1Cl` (stereo in doubt) [Compound 111, (Z)-8-chloro-5-(2-(2,4-dichlorophenyl)prop-1-enyl)-2,3,4,5-tetrahydro-2-methyl-1H-pyrido[4,3-b]indole]: the “Inhibition of ligand binding, Dopamine D2L” value in experiment [1] (setting [6]) is 27% and 29%. For the same molecule, in experiment [2] (percent inhibition of specific binding, 1 µM), the “Inhibition of ligand binding, Adrenergic α2A” value was found to be 101%. The “Histamine Binding (1 μM) H1, percent inhibition of specific binding” value in experiment [3] is 73% and 74%. Besides, the inhibition at 1 µM in experiment [4] (setting [9]) came out at 90%; in experiment [5], 91%.
As to `CCC(O)(Cn1c2c(c3cc(C)ccc31)CN(C)CC2)c1ccc(F)cc1` (stereo not drawn) [Compound 175, 1-(2,8-dimethyl-3,4-dihydro-1H-pyrido[4,3-b]indol-5(2H)-yl)-2-(4-fluorophenyl)butan-2-ol], the inhibition at 1 µM in experiment [1] (setting [7]) was determined as 24%; in experiment [2] (setting [8]) it was 94%; in experiment [3] it was 71%; in experiment [4] (setting [9]) it was 96%; in experiment [5], 91%.
On to `C/C(=C\n1c2c(c3cc(C)ccc31)CN(C)CC2)c1ccc(Cl)cc1` [Compound 211, (E)-5-(2-(4-chlorophenyl)prop-1-enyl)-2,8-dimethyl-2,3,4,5-tetrahydro-1H-pyrido[4,3-b]indole], for which the “Inhibition of ligand binding, Dopamine D2L” value in experiment [1] (setting [6]) is on record as 49%. In addition, the inhibition at 1 µM in experiment [1] (setting [7]) amounted to 39%; in experiment [2] (setting [8]) it was 97%; in experiment [3], 53%; in experiment [4] (setting [9]), 114%; in experiment [5] it was 100%. In experiment [3], the “Histamine Binding (1 μM) H1, percent inhibition of specific binding” value worked out at 54%.
With `Cc1ccc2c(c1)c1c(n2CC(O)c2ccc(C)nc2)CCN(C)C1` (stereo not drawn) [Compound 48, 2-(2,8-dimethyl-3,4-dihydro-1H-pyrido[4,3-b]indol-5(2H)-yl)-1-(6-methylpyridin-3-yl)ethanol], the inhibition at 1 µM in experiment [1] (setting [7]) is 8%; in experiment [2] (setting [8]), 83%; in experiment [3] it was 93%; in experiment [4] (setting [9]) it was 100%; in experiment [5], 47%.
The like results for `Cc1ccc2c(c1)c1c(n2CC(C)(O)c2ccncc2)CCN(C)C1` (stereo not drawn) [Compound 62, 1-(1,2,3,4-tetrahydro-2,8-dimethylpyrido[4,3-b]indol-5-yl)-2-(pyridin-4-yl)propan-2-ol] were, in that order, 7%, 57%, 38%, 103% and 43%.
Turning to `Cc1ccc2c(c1)c1c(n2CC(O)c2ccc(F)cc2)CCN(C)C1` (stereo not drawn) [Compound 172, 2-(2,8-dimethyl-3,4-dihydro-1H-pyrido[4,3-b]indol-5(2H)-yl)-1-(4-fluorophenyl)ethanol], the inhibition at 1 µM in experiment [1] (setting [7]) was found to be 36%; in experiment [2] (setting [8]), 98%; in experiment [3], 95%; in experiment [4] (setting [9]), 104%; in experiment [5], 65%.
With `CCOC(=O)/C=C(/Cn1c2c(c3cc(C)ccc31)CN(C)CC2)c1ccc(F)cc1` [Compound No. 350, (E)-ethyl 4-(2,8-dimethyl-3,4-dihydro-1H-pyrido[4,3-b]indol-5(2H)-yl)-3-(4-fluorophenyl)but-2-enoate], the “Inhibition of ligand binding, Dopamine D2L (percent inhibition of specific binding)” value in experiment [1] ([…] [3H]Spiperone) is 21%. In addition, the inhibition at 1 µM in experiment [1] (setting [10]) turned out to be 12%; in experiment [2] (setting [11]), 95%; in experiment [3], 27%; in experiment [4] (setting [12]), 107%; in experiment [5] it was 93%. Also, the “Histamine Binding (1 μM) H1, percent inhibition of specific binding” value in experiment [3] was 37%.
Consider `Cc1ccc2c(c1)c1c(n2/C=C/c2ccc(C)nc2)CCN(C)C1` [compound 95, 2,3,4,5-tetrahydro-2,8-dimethyl-5-((E)-2-(6-methylpyridin-3-yl)vinyl)-1H-pyrido[4,3-b]indole], for which the inhibition at 1 µM in experiment [1] (setting [7]) worked out at 17%; in experiment [2] (setting [8]), 95%; in experiment [3] it was 85%; in experiment [4] (setting [9]), 103%; in experiment [5], 41%.
In the case of `CNC(=O)c1ccc2c(c1)c1c(n2C#Cc2ccc(F)cc2)CCN(C)C1` [Compound No. 483, 5-((4-fluorophenyl)ethynyl)-N,2-dimethyl-2,3,4,5-tetrahydro-1H-pyrido[4,3-b]indole-8-carboxamide], the inhibition at 1 µM in experiment [1] (setting [10]) is 37%; in experiment [2] (setting [11]) it was 77%; in experiment [3], -1%; in experiment [4] (setting [12]), 14%; in experiment [5], 10%.
`COc1ccc(C(C)(O)Cn2c3c(c4cc(C)ccc42)CN(C)CC3)cc1F` (stereo not drawn) [Compound 173, 1-(2,8-dimethyl-3,4-dihydro-1H-pyrido[4,3-b]indol-5(2H)-yl)-2-(3-fluoro-4-methoxyphenyl)propan-2-ol]: the inhibition at 1 µM was determined as 32% in experiment [1] (setting [7]); 94% in experiment [2] (setting [8]); 91% in experiment [3]; 98% in experiment [4] (setting [9]); 78% in experiment [5].
On to `COc1ccc(C(C)(O)Cn2c3c(c4cc(Cl)ccc42)CN(C)CC3)cc1` (stereo not drawn) [Compound 57, 1-(8-chloro-1,2,3,4-tetrahydro-2-methylpyrido[4,3-b]indol-5-yl)-2-(4-methoxyphenyl)propan-2-ol], for which the inhibition at 1 µM in experiment [1] (setting [7]) came out at 22%; in experiment [2] (setting [8]) it was 70%; in experiment [3], 41%; in experiment [4] (setting [9]), 108%; in experiment [5], 82%.
